From patent US20120095055A1, “HEXAHYDROCYCLOPENTYL[f]INDAZOLE 5-HYDROXYMETHYL ETHANOLS AND DERIVATIVES THEREOF AS SELECTIVE GLUCOCORTICOID RECEPTOR MODULATORS” (Merck Sharp & Dohme, Corp., priority 2009, published 2012)
pKi: −log10 of the molar value.

Molecular target: T1, glucocorticoid receptor (GR) (Homo sapiens, UniProt P04150)
T1 construct: endogenous in cells; host or cells: HeLa (ATCC) cell lysate supernatant
T1 sequence (P04150 1-777): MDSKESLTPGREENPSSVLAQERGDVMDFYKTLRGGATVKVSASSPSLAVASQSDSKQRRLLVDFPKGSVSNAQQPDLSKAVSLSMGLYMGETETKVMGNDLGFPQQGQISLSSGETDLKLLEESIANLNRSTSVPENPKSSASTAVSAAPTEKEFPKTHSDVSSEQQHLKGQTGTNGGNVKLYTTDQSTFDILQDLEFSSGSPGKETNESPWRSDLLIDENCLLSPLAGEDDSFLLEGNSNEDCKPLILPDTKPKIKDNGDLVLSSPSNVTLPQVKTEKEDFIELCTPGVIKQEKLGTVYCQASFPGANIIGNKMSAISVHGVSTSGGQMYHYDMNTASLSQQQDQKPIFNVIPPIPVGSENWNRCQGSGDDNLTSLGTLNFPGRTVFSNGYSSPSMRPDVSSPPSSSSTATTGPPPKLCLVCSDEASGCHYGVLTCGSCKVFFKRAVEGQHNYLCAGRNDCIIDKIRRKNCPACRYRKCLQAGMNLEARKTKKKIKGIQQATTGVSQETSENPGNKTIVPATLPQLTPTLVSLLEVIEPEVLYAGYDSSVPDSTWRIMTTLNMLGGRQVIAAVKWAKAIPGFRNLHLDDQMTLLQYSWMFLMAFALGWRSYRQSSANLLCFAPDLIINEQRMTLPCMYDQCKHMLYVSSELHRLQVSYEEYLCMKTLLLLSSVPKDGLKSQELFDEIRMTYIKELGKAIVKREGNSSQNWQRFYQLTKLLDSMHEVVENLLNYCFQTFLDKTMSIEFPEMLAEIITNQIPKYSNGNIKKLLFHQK
Assay: GR Ligand Binding Assay (3H-dexamethasone displacement, HeLa cell lysate)
Settings: 3H-DEX trace, DEX as reference, read-out: GR BIND Ki
Protocol: Binding Buffer: TEGM (10 mM Tris-HCl, 1 mM EDTA, 10% glycerol, 1 mM beta-mecaptoethanol, 10 mM Sodium Molybdate, pH 7.2)
Dexmethasone-methyl-^3H, (DEX*); (Amersham cat# TRK645) Dexamethasone(DEX) (Sigma, cat# D1756):
Cells (Hall R. E., et al., European Journal of Cancer, 30A: 484-490 (1994)) HeLa (ATCC) cultured in RPMI 1640 (Gibco 11835-055) containing 20 mM Hepes, 4 mM L-glu, 10 ug/ml of human insulin (Sigma, I-0259), 10% FBS and 20 ug/ml of Gentamicin (Gibco#15710-072) are rinsed twice in PBS. Phenol red-free Trypsin-EDTA is diluted in the same PBS 1:10. The cell layers are rinsed with 1× Trypsin, extra Trypsin is poured out, and the cell layers are incubated at 37° C. for ˜2 min. The flask is tapped and checked for signs of cell detachment. Once the cells begin to slide off the flask, the complete media is added. The cells are counted at this point, then diluted to the appropriate concentration and split into flasks or dishes for further culturing (Usually 1:3 to 1:6 dilution).
When the cells are 70 to 85% confluent, they are detached as described above, and collected by centrifuging at 1000 g for 10 minutes at 4° C. The cell pellet is washed twice with TEGM (10 mM Tris-HCl, 1 mM EDTA, 10% glycerol, 1 mM beta-mercaptoethanol, 10 mM Sodium Molybdate, pH 7.2). After the final wash, the cells are resuspended in TEGM at a concentration of 10^7 cells/mL. The cell suspension is snap frozen in liquid nitrogen or ethanol/dry ice bath and transferred to −80° C. freezer on dry ice. Before setting up the binding assay, the frozen samples are left on ice-water to just thaw (˜1 hr). Then the samples are centrifuged at 12,500 g to 20,000 g for 30 min at 4° C. The supernatant is used to set-up assay right away. If using 50 μL of supernatant, the test compound can be prepared in 50 μL of the TEGM buffer.
1×TEGM buffer is prepared, and the isotope-containing assay mixture is prepared in the following order: EtOH (2% final concentration in reaction), ^3H-DEX (Amersham Biosciences) and 1×TEGM. [e.g. For 100 samples, 200 μL (100×2) of EtOH+4.25 μL of 1:10 ^3H—Dex stock+2300 μL (100×23) 1×TEGM]. The compound is serially diluted, e.g., if starting final conc. is 1 μM, and the compound is in 25 μL of solution, for duplicate samples, 75 μL of 4×1 μM solution is made and 3 μL of 100 μM is added to 72 μL of buffer, and 1:5 serial dilution.
25 μL, of 3H-DEX (6 nM) trace and 25 μL compound solution are first mixed together, followed by addition of 50 μL receptor solution. The reaction is gently mixed, spun briefly at about 200 rpm and incubated at 4° C. overnight. 100 μL of 50% HAP slurry is prepared and added to the incubated reaction which is then vortexed and incubated on ice for 5 to 10 minutes. The reaction mixture is vortexed twice more to resuspend HAP while incubating reaction. The samples in 96-well format are then washed in wash buffer using The FilterMate™ Universal Harvester plate washer (Packard). The washing process transfers HAP pellet containing ligand-bound expressed receptor to Unifilter-96 GF/B filter plate (Packard). The HAP pellet on the filter plate is incubated with 50 μL of MICROSCINT (Packard) scintillint for 30 minutes before being counted on the TopCount microscintillation counter (Packard). IC50s are calculated using DEX as a reference.

Structure (SMILES)	pKi
C[C@]12Cc3cnn(-c4ccc(F)cc4)c3C=C1CC[C@@]2(CO)CC(O)c1ccccn1 (single isomer, unassigned) [Example 1b]	8.40
C[C@]12Cc3cnn(-c4ccc(F)cc4)c3C=C1CC[C@@]2(CO)CC(O)c1cc(F)cc(Cl)c1 (single isomer, unassigned) [Example 6b]	8.89
C[C@]12Cc3cnn(-c4cccc(F)c4)c3C=C1CC[C@@]2(CO)CC(O)c1ccccn1 (single isomer, unassigned) [Example 19b]	8.05
C[C@]12Cc3cnn(-c4ccccc4)c3C=C1CC[C@@]2(CO)CC(O)c1ccccn1 (single isomer, unassigned) [Example 23b]	8.48
C[C@]12Cc3cnn(-c4ccc(F)cc4)c3C=C1CC[C@@]2(CO)CC(O)c1cccnc1 (single isomer, unassigned) [Example 15b]	8.08
COc1cccnc1C(O)C[C@]1(CO)CCC2=Cc3c(cnn3-c3ccc(F)cc3)C[C@@]21C (single isomer, unassigned) [Example 21a]	8.12
COc1cccnc1C(O)C[C@]1(CO)CCC2=Cc3c(cnn3-c3ccc(F)cc3)C[C@@]21C (single isomer, unassigned) [Example 21b]	8.43
CC(O)(C[C@]1(CO)CCC2=Cc3c(cnn3-c3ccc(F)cc3)C[C@@]21C)c1cccnc1 (single isomer, unassigned) [Example 25b]	7.66
Cc1cccc(C(O)C[C@]2(CO)CCC3=Cc4c(cnn4-c4ccc(F)cc4)C[C@@]32C)c1 (single isomer, unassigned) [Example 5a]	8.85
C[C@]12Cc3cnn(-c4ccc(F)cc4)c3C=C1CC[C@@]2(CO)CC(O)c1ccccc1Cl (single isomer, unassigned) [Example 3a]	9.05
C[C@]12Cc3cnn(-c4ccc(F)cc4)c3C=C1CC[C@@]2(CO)CC(O)C(F)(F)F (single isomer, unassigned) [Example 28a]	8.08
C[C@]12Cc3cnn(-c4ccc(F)cc4)c3C=C1CC[C@@]2(CO)CC(O)C1CCCCC1 (single isomer, unassigned) [Example 18a, 1-cyclohexyl-2-[(4αS)-1-(4-fluorophenyl)-5-(hydroxymethyl)-4α-methyl-1,4,4α,5,6,7-hexahydrocyclopenta[f]indazol-5-yl]ethanol]	8.77
C[C@]12Cc3cnn(-c4ccccc4)c3C=C1CC[C@@]2(CO)CC(O)c1cccnc1 (single isomer, unassigned) [Example 29a]	7.93
C[C@]12Cc3cnn(-c4ccc(F)cc4)c3C=C1CC[C@@]2(CO)CC1OC(=O)c2ccccc21 (single isomer, unassigned) [Example 12a]	8.59
C[C@]12Cc3cnn(-c4ccc(F)cc4)c3C=C1CC[C@@]2(CO)CC(O)C1CC1 (single isomer, unassigned) [Example 20a, 1-cyclopropyl-2-[(4αS)-1-(4-fluorophenyl)-5-(hydroxymethyl)-4α-methyl-1,4,4α,5,6,7-hexahydrocyclopenta[f]indazol-5-yl]ethanol]	7.65
C[C@]12Cc3cnn(-c4ccc(F)cc4)c3C=C1CC[C@@]2(CO)CC(O)c1ncccc1F (single isomer, unassigned) [Example 10b]	8.74
COc1ccc(C(O)C[C@]2(CO)CCC3=Cc4c(cnn4-c4ccc(F)cc4)C[C@@]32C)nc1 (single isomer, unassigned) [Example 24b]	8.12
C[C@]12Cc3cnn(-c4ccc(F)cc4)c3C=C1CC[C@@]2(CO)CC(O)c1ccccc1Cl (single isomer, unassigned) [Example 3b]	9.05
C[C@]12Cc3cnn(-c4ccc(F)cc4)c3C=C1CC[C@@]2(CO)CC1OC(=O)c2ccccc21 (single isomer, unassigned) [Example 12b]	8.82
C[C@]12Cc3cnn(-c4ccc(F)cc4)c3C=C1CC[C@@]2(CO)CC1OC(=O)c2ccccc21 (stereo partly drawn) [Example 11, 3-{[(4αS,5R)-1-(4-fluorophenyl)-5-(hydroxymethyl)-4α-methyl-1,4,4α,5,6,7,7a,8-octahydrocyclopenta[f]indazol-5-yl]methyl}-2-benzofuran-1(3H)-one]	7.72
C[C@]12Cc3cnn(-c4ccc(F)cc4)c3C=C1CC[C@@]2(CO)CC(O)c1cccc(Cl)c1 (stereo partly drawn) [Example 8, 1-(3-chlorophenyl)-2-[(4αS,5R)-1-(4-fluorophenyl)-5-(hydroxymethyl)-4α-methyl-1,4,4α,5,6,7-hexahydrocyclopenta[f]indazol-5-yl]ethanol]	8.92
C[C@]12Cc3cnn(-c4ccc(F)cc4)c3C=C1CC[C@@]2(CO)CC(O)C1CCCCC1 (single isomer, unassigned) [Example 18b, 1-cyclohexyl-2-[(4αS)-1-(4-fluorophenyl)-5-(hydroxymethyl)-4α-methyl-1,4,4α,5,6,7-hexahydrocyclopenta[f]indazol-5-yl]ethanol]	8.64
C[C@]12Cc3cnn(-c4ccccc4)c3C=C1CC[C@@]2(CO)CC(O)c1cccnc1 (single isomer, unassigned) [Example 29b]	8.09
C[C@]12Cc3cnn(-c4cccc(F)c4)c3C=C1CC[C@@]2(CO)CC(O)c1ccccn1 (single isomer, unassigned) [Example 19a]	8.43
C[C@]12Cc3cnn(-c4ccc(F)cc4)c3C=C1CC[C@@]2(CO)CC(O)c1cc(F)cc(F)c1 (stereo partly drawn) [Example 9, 1-(3,5-difluorophenyl)-2-[(4αS,5R)-1-(4-fluorophenyl)-5-(hydroxymethyl)-4α-methyl-1,4,4α,5,6,7-hexahydrocyclopenta[f]indazol-5-yl]ethanol]	8.68
C[C@]12Cc3cnn(-c4ccc(F)cc4)c3C=C1CC[C@@]2(CO)CC(O)c1cc(F)cc(Cl)c1 (single isomer, unassigned) [Example 6a]	8.96
C[C@]12Cc3cnn(-c4cccc(F)c4)c3C=C1CC[C@@]2(CO)CC(O)c1cccnc1 (single isomer, unassigned) [Example 27b]	7.87
C[C@]12Cc3cnn(-c4ccc(F)cc4)c3C=C1CC[C@@]2(CO)CC(O)c1cccc(C(F)(F)F)c1 (single isomer, unassigned) [Example 7b]	9.05
Cc1ccc(C(O)C[C@]2(CO)CCC3=Cc4c(cnn4-c4ccc(F)cc4)C[C@@]32C)nc1 (stereo partly drawn) [Example 16, 2-[(4αS,5R)-1-(4-fluorophenyl)-5-(hydroxymethyl)-4α-methyl-1,4,4α,5,6,7-hexahydrocyclopenta[f]indazol-5-yl]-1-(5-methylpyridin-2-yl)ethanol]	8.43
